In patent publication US12344606B2, “Next-generation modulators of stimulator of interferon genes (STING)” (RYVU THERAPEUTICS S.A., priority 2019, dated 2025):

Columns and labels:
[1] = test system: interferon regulatory factor (IRF) pathway in THP-1 dual cells; experiment: THP-1 Dual reporter assay, IRF pathway (luciferase); assay type: cell-based; settings: Homo sapiens, THP1-Dual; 18 h stimulation, luminescence
Protocol: (§1) Compounds of the present invention were tested for their activity using THP-1 dual cells (Invivogen, cat no. thpd-nfis) allowing for simultaneous study of NF-κB pathway and the interferon regulatory factor (IRF) pathway. THP-1 dual cells contain luciferase reporter gene under the control of an ISG54 (interferon-stimulated gene) minimal promoter in conjunction with five interferon-stimulated response elements and a secreted embryonic alkaline phosphatase reporter gene under the control an IFN (interferon)-β minimal promoter fused to five copies of the NF-κB consensus transcriptional response element with three copies of the c-Rel binding site. Following 18 h of stimulation with STING agonist, medium was collected and transferred onto fresh cell culture plate. To verify activity of the IRF pathway, luminescence activity was measured with standard laboratory plate reader immediately after addition 10 μl of the medium to 50 μl (or 40 μl) of luminescence reagent (Invivogen, cat. No. rep-qlc2). To verify activity of NF-κB pathway, 20 μl (or 10 μl) of the medium was mixed with 80 μl of a detection medium (Invivogen, cat. No. rep-qb2) and incubated for 2 hours (or 1 hour) at 37° C. in a humidified atmosphere containing 5% CO2. Next, absorbance at 630 nm (or 655 nm) was recorded using standard laboratory plate reader.

[2] = test system: NF-κB pathway in THP-1 dual cells; experiment: THP-1 Dual reporter assay, NF-κB pathway (SEAP); assay type: cell-based; settings: Homo sapiens, THP1-Dual; 18 h stimulation, absorbance; read-out: THP1 Dual EC50 (μM) NFkB
Protocol: as §1

[3] = biological target: human STING (Homo sapiens, UniProt Q86WV6); experiment: Fluorescence Thermal Shift assay (hSTING FTS binding assay); settings: STING 0.1 mg/ml, 20 min preincubation, SyproOrange
Chain of human STING (Q86WV6 whole entry H232R): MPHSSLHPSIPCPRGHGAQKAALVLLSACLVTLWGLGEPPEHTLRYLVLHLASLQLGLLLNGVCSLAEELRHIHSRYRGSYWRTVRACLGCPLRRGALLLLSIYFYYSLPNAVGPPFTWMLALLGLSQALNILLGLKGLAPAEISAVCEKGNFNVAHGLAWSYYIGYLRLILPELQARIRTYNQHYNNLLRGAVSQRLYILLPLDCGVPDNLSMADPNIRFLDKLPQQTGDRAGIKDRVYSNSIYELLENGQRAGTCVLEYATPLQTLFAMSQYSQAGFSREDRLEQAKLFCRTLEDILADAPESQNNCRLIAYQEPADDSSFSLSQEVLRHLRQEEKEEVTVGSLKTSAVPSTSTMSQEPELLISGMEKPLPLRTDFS
Protocol: Compounds of the present invention were tested for binding to human STING in Fluorescence Thermal Shift assay. STING was preincubated with the compounds for 20 minutes in 50 mM Hepes, 150 mM NaCl, pH 7.5 in 16 μl volume, following by adding 4 μl of SyproOrange dye dilution (ThermoFisher, cat no. S-6651). Final STING concentration was 0.1 mg/ml. Thermal unfolding was performed in Real-Time PCR QuantStudio 6 Flex System (Applied Biosystems), from 25 to 99° C., with continuous ramp mode and ramp rate 0.033° C./s. The data were analyzed using Protein Thermal Shift Software (ThermoFisher).

Row | Compound | EC50 [1] | EC50 [2] | hSTING FTS binding assay (ΔT C.°) [3]
1 | Cc1cc(CN(Cc2cn(C)c3ccccc3c2=O)C2CCCN(c3cccnc3)C2)ccn1 (stereo not drawn) [Example 2, 1-methyl-3-({[(2-methylpyridin-4-yl)methyl][1-(pyridin-3-yl)piperidin-3-yl]amino}methyl)-1,4-dihydroquinolin-4-one] | ≤ 1 µM | ≤ 1 µM | ++ (ΔTm>10° C.)
2 | Cc1ccc(N2CCC[C@H](N(Cc3ccnc(C)c3)Cc3c[nH]c4ccccc4c3=O)C2)cn1 [Example 58, 3-({[(3S)-1-(6-methylpyridin-3-yl)piperidin-3-yl][(2-methylpyridin-4-yl)methyl]amino}methyl)-1,4-dihydroquinolin-4-one] | ≤ 1 µM | ≤ 1 µM | ++ (ΔTm>10° C.)
3 | COc1nc2c(cc1F)c(=O)c(CN(Cc1ccnc(C)c1)[C@H]1CCCN(c3ccc(C)nc3)C1)cn2C1CC1 [Example 44, 1-cyclopropyl-6-fluoro-7-methoxy-3-({[(3S)-1-(6-methylpyridin-3-yl)piperidin-3-yl][(2-methylpyridin-4-yl)methyl]amino}methyl)-1,4-dihydro-1,8-naphthyridin-4-one] | ≤ 1 µM | ≤ 1 µM | ++ (ΔTm>10° C.)
4 | COC(=O)C1CCN(c2ccc3c(=O)c(CN(Cc4ccnc(C)c4)[C@H]4CCCN(c5cccnc5)C4)cn(C)c3c2)CC1 [Example 29, Methyl 1-[1-methyl-3-({[(2-methylpyridin-4-yl)methyl][(3S)-1-(pyridin-3-yl)piperidin-3-yl]amino}methyl)-4-oxo-1,4-dihydroquinolin-7-yl]piperidine-4-carboxylate] | ≤ 1 µM | ≤ 1 µM | ++ (ΔTm>10° C.)
5 | Cc1ccc(N2CCC[C@H](N(Cc3ccnc(C)c3)Cc3cn(C)c4cc(N5CCNCC5=O)ccc4c3=O)C2)cn1 [Example 49, 1-methyl-3-({[(3S)-1-(6-methylpyridin-3-yl)piperidin-3-yl][(2-methylpyridin-4-yl)methyl]amino}methyl)-7-(2-oxopiperazin-1-yl)-1,4-dihydroquinolin-4-one] | ≥ 10 µM | ≥ 10 µM | + (ΔTm<10° C.)
6 | Cc1cc(CN(Cc2cn(C)c3ccccc3c2=O)[C@H]2CCCN(c3cc[nH]c(=O)c3)C2)ccn1 [Example 30, 1-methyl-3-({[(2-methylpyridin-4-yl)methyl][(3S)-1-(2-oxo-1,2-dihydropyridin-4-yl)piperidin-3-yl]amino}methyl)-1,4-dihydroquinolin-4-one] | ≥ 10 µM | ≥ 10 µM | + (ΔTm<10° C.)
7 | COc1cc2c(cc1F)c(=O)c(CN(Cc1ccnc(C)c1)[C@H]1CCCN(c3ccc(C)nc3)C1)cn2C1CC1 [Example 45, 1-cyclopropyl-6-fluoro-7-methoxy-3-({[(3S)-1-(6-methylpyridin-3-yl)piperidin-3-yl][(2-methylpyridin-4-yl)methyl]amino}methyl)-1,4-dihydroquinolin-4-one] | ≤ 1 µM | ≤ 1 µM | ++ (ΔTm>10° C.)
8 | CCc1cc(CN(Cc2cn(C)c3ccccc3c2=O)C2CCCN(c3cccnc3)C2)ccn1 (stereo not drawn) [Example 21, 3-({[(2-ethylpyridin-4-yl)methyl][1-(pyridin-3-yl)piperidin-3-yl]amino}methyl)-1-methyl-1,4-dihydroquinolin-4-one] | ≥ 10 µM | ≥ 10 µM | + (ΔTm<10° C.)
9 | COc1cc(CN(Cc2cn(C3CC3)c3cc(Cl)c(F)cc3c2=O)[C@H]2CCCN(c3cccnc3)C2)ccn1 [Example 28, 7-chloro-1-cyclopropyl-6-fluoro-3-({[(2-methoxypyridin-4-yl)methyl][(3S)-1-(pyridin-3-yl)piperidin-3-yl]amino}methyl)-1,4-dihydroquinolin-4-one] | ≤ 1 µM | ≤ 1 µM | ++ (ΔTm>10° C.)
10 | Cc1ccc(N2CCC[C@H](N(Cc3ccnc(C)c3)Cc3cn(C4COC4)c4ccccc4c3=O)C2)cn1 [Example 50, 3-({[(3S)-1-(6-methylpyridin-3-yl)piperidin-3-yl][(2-methylpyridin-4-yl)methyl]amino}methyl)-1-(oxetan-3-yl)-1,4-dihydroquinolin-4-one] | ≤ 1 µM | ≤ 1 µM | ++ (ΔTm>10° C.)
11 | Cc1cc(CN(Cc2cn(C)c3ccccc3c2=O)C2CN(c3cccnc3)CC(F)(F)C2)ccn1 (stereo not drawn) [Example 34, 3-({[5,5-difluoro-1-(pyridin-3-yl)piperidin-3-yl][(2-methylpyridin-4-yl)methyl]amino}methyl)-1-methyl-1,4-dihydroquinolin-4-one] | ≥ 10 µM | ≥ 10 µM | + (ΔTm<10° C.)
12 | COc1cc(CN(Cc2cn(C)c3ccccc3c2=O)C2CCCN(c3cccnn3)C2)ccn1 (stereo not drawn) [Example 3, 3-({[(2-methoxypyridin-4-yl)methyl][1-(pyridazin-3-yl)piperidin-3-yl]amino}methyl)-1-methyl-1,4-dihydroquinolin-4-one] | ≥ 10 µM | ≥ 10 µM | + (ΔTm<10° C.)

Now from value to molecule:

Row | EC50 [1] | EC50 [2] | hSTING FTS binding assay (ΔT C.°) [3] | Compound
13 | ≤ 1 µM | ≤ 1 µM | ++ (ΔTm>10° C.) | Cc1ccc(N2CCC[C@H](N(Cc3ccnc(C)c3)Cc3cn(C4CC4)c4cc(N5CCNC6(CC6)C5)c(F)cc4c3=O)C2)cn1 [Example 52, 1-cyclopropyl-7-{4,7-diazaspiro[2.5]octan-7-yl}-6-fluoro-3-({[(3S)-1-(6-methylpyridin-3-yl)piperidin-3-yl][(2-methylpyridin-4-yl)methyl]amino}methyl)-1,4-dihydroquinolin-4-one]
14 | ≤ 1 µM | ≤ 1 µM | ++ (ΔTm>10° C.) | Cc1ccc(N2CCC[C@H](N(Cc3ccnc(C)c3)Cc3cn(C4CC4)c4cc(Cl)c(F)cc4c3=O)C2)cn1 [Example 40, 7-chloro-1-cyclopropyl-6-fluoro-3-({[(3S)-1-(6-methylpyridin-3-yl)piperidin-3-yl][(2-methylpyridin-4-yl)methyl]amino}methyl)-1,4-dihydroquinolin-4-one]
15 | ≤ 1 µM | ≤ 1 µM | ++ (ΔTm>10° C.) | Cc1ccc(N2CCC[C@H](N(Cc3ccnc(C)c3)Cc3cn(C)c4cc(Br)ccc4c3=O)C2)cn1 [Example 37, 7-bromo-1-methyl-3-({[(3S)-1-(6-methylpyridin-3-yl)piperidin-3-yl][(2-methylpyridin-4-yl)methyl]amino}methyl)-1,4-dihydroquinolin-4-one]
16 | ≤ 1 µM | 1 to 10 µM | ++ (ΔTm>10° C.) | Cc1cc(CN(Cc2c[nH]c3ccccc3c2=O)[C@H]2CCCN(c3cccnc3)C2)ccn1 [Example 35, 3-({[(2-methylpyridin-4-yl)methyl][(3S)-1-(pyridin-3-yl)piperidin-3-yl]amino}methyl)-1,4-dihydroquinolin-4-one]
17 | ≥ 10 µM | ≥ 10 µM | + (ΔTm<10° C.) | Cc1cc(CN(Cc2cn(C)c3ccccc3c2=O)[C@@H]2CN(c3cccnc3)CC[C@H]2O)ccn1 [Example 24, 3-({[(3R,4R)-4-hydroxy-1-(pyridin-3-yl)piperidin-3-yl][(2-methylpyridin-4-yl)methyl]amino}methyl)-1-methyl-1,4-dihydroquinolin-4-one]
18 | ≤ 1 µM | ≤ 1 µM | ++ (ΔTm>10° C.) | Cc1cc(CN(Cc2cn(C)c3cc(Cl)c(F)cc3c2=O)[C@H]2CCCN(c3cccnc3)C2)ccn1 [Example 25, 7-chloro-6-fluoro-1-methyl-3-({[(2-methylpyridin-4-yl)methyl][(3S)-1-(pyridin-3-yl)piperidin-3-yl]amino}methyl)-1,4-dihydroquinolin-4-one]
19 | ≤ 1 µM | ≤ 1 µM | ++ (ΔTm>10° C.) | Cc1ccc(N2CCC[C@H](N(Cc3ccnc(C)c3)Cc3cn(C4CC4)c4cc(N5CCN(CC(F)F)CC5)c(F)cc4c3=O)C2)cn1 [Example 48, 1-cyclopropyl-7-[4-(2,2-difluoroethyl)piperazin-1-yl]-6-fluoro-3-({[(3S)-1-(6-methylpyridin-3-yl)piperidin-3-yl][(2-methylpyridin-4-yl)methyl]amino}methyl)-1,4-dihydroquinolin-4-one]
20 | ≤ 1 µM | ≤ 1 µM | ++ (ΔTm>10° C.) | COc1cc(CN(Cc2cn(C3CC3)c3cc(F)c(F)cc3c2=O)[C@H]2CCCN(c3ccc(C)nc3)C2)ccn1 [Example 31, 1-cyclopropyl-6,7-difluoro-3-({[(2-methoxypyridin-4-yl)methyl][(3S)-1-(6-methylpyridin-3-yl)piperidin-3-yl]amino}methyl)-1,4-dihydroquinolin-4-one]
